Here are results for five compounds from DBAASP.

Test systems include Leuconostoc lactis; Bacillus cereus; Escherichia coli; Micrococcus luteus; Pasteurella multocida; Streptococcus uberis; Listeria innocua; Staphylococcus aureus; Escherichia coli DC2; Escherichia coli UB1005; Candida albicans C627; Escherichia coli K99; Escherichia coli K88.
What all share (experiment): ≥ marks a high value that may be exact or a test limit, other limits are often not marked, values filed in µg/mL are converted to µM
Assay [1] concerns Zymomonas mobilis ATCC 10988.
Assay [2] has as its system Staphylococcus epidermidis.
Assay [3] concerns Staphylococcus epidermidis NBRC 12993.
Assay [4] deals with Candida viswanathii NBRC 10321.
Assay [5] deals with Aspergillus oryzae NBRC 100959.
For assay [6], the system named is Micrococcus luteus NBRC 3333.
In assay [7] the test system is Escherichia coli NBRC 3972.
The subject of assay [8] is Escherichia coli CGSC 4908.
The test system of assay [9] is Salmonella enterica serovar typhimurium MS7953s.
In assay [10] the test system is Aeromonas salmonicida 97-4.
For assay [11], the system named is Pseudomonas aeruginosa K799.
The subject of assay [12] is Staphylococcus aureus C623.
Assay [13] deals with Salmonella enterica subsp. enterica serovar Typhimurium ATCC 14028s.
Assay [14] has as its system Pseudomonas aeruginosa Z61.
Assay [15] deals with Aeromonas salmonicida 99-1.
Assay [16] relates to Staphylococcus epidermidis C621.
In assay [17] the test system is Lacticaseibacillus rhamnosus 1.0911.
Assay [18] has as its system Pseudomonas aeruginosa ATCC 27853.
In assay [19] the test system is Staphylococcus aureus ATCC 43300.
The test system of assay [20] is Lacticaseibacillus rhamnosus 7469.
For assay [21], the system named is Lactiplantibacillus plantarum 8014.
The subject of assay [22] is Salmonella enterica subsp. enterica serovar Pullorum C79-13.
Assay [23] concerns Salmonella enterica subsp. enterica serovar Typhimurium ATCC 14028.
Assay [24] concerns Lacticaseibacillus rhamnosus 1.0385.
Assay [25] concerns Salmonella enterica subsp. enterica serovar Typhimurium C77-31.
Assay [26] concerns Escherichia coli ATCC 25922.
Assay [27] deals with Staphylococcus aureus ATCC 25923.
In assay [28] the test system is Lacticaseibacillus rhamnosus 1.0936.

Values after ≈ are worked out from the molar mass of the structure shown.

Regarding `CC[C@H](C)[C@H](NC(=O)[C@H](CCCCN)NC(=O)[C@H](CCC(N)=O)NC(=O)[C@@H](NC(=O)[C@@H](NC(=O)[C@H](CCCN=C(N)N)NC(=O)[C@H](CCCCN)NC(=O)[C@@H](N)Cc1ccccc1)[C@@H](C)CC)C(C)C)C(=O)N[C@@H](CCCCN)C(=O)N[C@@H](CC(=O)O)C(=O)N[C@@H](Cc1ccccc1)C(=O)N[C@@H](CC(C)C)C(=O)N[C@@H](CCCN=C(N)N)C(N)=O` [FKRIVQKIKDFLR], the MIC in [1] is at least 118 µM.

In the case of `CC[C@H](C)[C@H](NC(=O)[C@H](CO)NC(=O)[C@H](CO)NC(=O)[C@H](C)NC(=O)[C@@H](NC(=O)[C@H](Cc1cnc[nH]1)NC(=O)CNC(=O)[C@H](C)NC(=O)[C@@H](NC(=O)[C@H](CCCCN)NC(=O)[C@H](CCCCN)NC(=O)[C@@H](NC(=O)[C@@H](NC(=O)[C@H](CC(=O)O)NC(=O)[C@H](Cc1ccccc1)NC(=O)[C@H](CC(C)C)NC(=O)CN)[C@@H](C)CC)C(C)C)[C@@H](C)CC)[C@@H](C)CC)C(N)=O` [GLFDIVKKIAGHIASSI], the MIC in the assay on Leuconostoc lactis was 3.39 µM (≈ 6 µg/mL); against Bacillus cereus, at least 56.5 µM; with Escherichia coli, over 56.5 µM; in the assay with Micrococcus luteus, at least 56.5 µM; in the assay on Pasteurella multocida, at least 56.5 µM; with Streptococcus uberis, 28.3 µM (≈ 50 µg/mL). In addition, the values for the MIC (in assay [2]; in the assay with Listeria innocua; in the assay on Staphylococcus aureus) were 28.3 µM (≈ 50 µg/mL), at least 56.5 µM and 28.3 µM (≈ 50 µg/mL), respectively.

Consider `CC[C@H](C)[C@H](NC(=O)[C@H](CCCCN)NC(=O)[C@@H](N)CCCN=C(N)N)C(=O)N[C@@H](CCCCN)C(=O)N[C@@H](CCCN=C(N)N)C(=O)N[C@@H](Cc1ccc(O)cc1)C(=O)N[C@@H](CC(C)C)C(=O)N[C@@H](CCCN=C(N)N)C(=O)N[C@@H](CCCN=C(N)N)C(=O)N[C@@H](CCSC)C(=O)N[C@@H](Cc1c[nH]c2ccccc12)C(=O)O` [RKIKRYLRRMW], for which the MIC in assay [3] was 15.6 µM (≈ 25 µg/mL); in assay [4], 15.6 µM (≈ 25 µg/mL); in assay [5], 7.78 µM (≈ 12.5 µg/mL); in [6] it was 15.6 µM (≈ 25 µg/mL); in assay [7], at least 125 µM.

Take `CC(=O)[C@H](C)NC(=O)[C@H](C)NC(=O)[C@H](CC(N)=O)NC(=O)[C@H](CC(C)C)NC(=O)[C@H](Cc1ccc(O)cc1)NC(=O)CNC(=O)CNC(=O)CNC(=O)[C@H](Cc1cnc[nH]1)NC(=O)[C@H](Cc1cnc[nH]1)NC(=O)[C@@H](NC(=O)CNC(=O)[C@H](Cc1cnc[nH]1)NC(=O)[C@H](Cc1ccccc1)NC(=O)[C@H](CC(C)C)NC(=O)[C@H](CC(C)C)NC(=O)[C@H](CCCNC(=N)N)NC(=O)[C@H](Cc1ccccc1)NC(=O)[C@@H](N)Cc1ccccc1)C(C)C` [FFRLLFHGVHHGGGYLNAA]: the MIC (with Escherichia coli DC2; in assay [8]; in assay [9]; against Escherichia coli UB1005; in assay [10]; in the assay on Candida albicans C627) was 30.3 µM (≈ 63.9 µg/mL) throughout. Besides, the MIC in assay [11], in assay [12], in [13], in assay [14], in [15] and in [16] was 30.3 µM (≈ 63.9 µg/mL) each time.

For `CC(C)C[C@H](NC(=O)[C@H](CC(C)C)NC(=O)[C@H](Cc1c[nH]c2ccccc12)NC(=O)[C@H](Cc1c[nH]c2ccccc12)NC(=O)[C@H](Cc1c[nH]c2ccccc12)NC(=O)[C@@H](N)CCCN=C(N)N)C(N)=O` [RWWWLL], the MIC was at least 64 µM in [17]; over 64 µM in [18]; 8 µM (≈ 7.67 µg/mL) in assay [19]; 16 µM (≈ 15.3 µg/mL) against Escherichia coli UB1005; at least 64 µM in assay [20]; at least 64 µM in assay [21]. The MIC was at least 64 µM in [22]; 16 µM (≈ 15.3 µg/mL) in the assay on Escherichia coli K99; 32 µM (≈ 30.7 µg/mL) in assay [23]; at least 64 µM in [24]; 16 µM (≈ 15.3 µg/mL) in assay [25]; 16 µM (≈ 15.3 µg/mL) in assay [26]. Also, the MIC in assay [27] is 8 µM (≈ 7.67 µg/mL); in the assay with Escherichia coli K88 it was 16 µM (≈ 15.3 µg/mL); in assay [28], at least 64 µM.

One may read the MIC as the lowest concentration that inhibits growth of the organism. The low end stands for greater potency, the high end for weaker potency.
